Experimental data taken from article PMC6588697, “Lugdunin amplifies innate immune responses in the skin in synergy with host- and microbiota-derived factors” (Nature Communications, 2019).
“And” between values parts separate entries of the source, which are not always exact repeats. Identical values can stand only once.

B1: IL-1: interleukin-1α, 10 ng/mL, control in Fig 4b (protein, UniProt P01583 113-271, looked up)
Interleukin-1 alpha: SAPFSFLSNVKYNFMRIIKYEFILNDALNQSIIRANDQYLTAAALHNLDEAVKFDMGAYKSSKDDAKITVILRISKTQLYVTAQDEDQPVLLKEMPEIPKTITGSETNLLFFWETHGTKNYFTSVAHPNLFIATKQDYWVCLAGGPPSITDFQILENQA

Experiments:
Type in all cases: cell-based, human
PHKs = experiment: CXCL8 expression in PHKs (qRT-PCR, normalized to actin); conditions: PHKs, 5 h
Procedure: Fig. 1 Lugdunin sensitizes epithelial cells for innate immune defense. a Primary human keratinocytes (PHKs) were pretreated with S. epidermidis conditioned medium (CM), indicated lugdunin concentrations, or the combination of both for 20 h. Subsequently, cells were infected with S. aureus for 1.5 h followed by cell lysis and determination of colony-forming units (CFUs). Shown is one representative experiment of three independent experiments with six technical replicates ± s.e.m. n.s., not significant. b Dorsal skin of mice was pretreated with S. epidermidis CM, 1.5 µg lugdunin alone or in combination with S. epidermidis CM for 24 h. Subsequently, S. aureus CFUs were determined. Horizontal lines represent the mean of each group ± s.e.m. c PHKs were treated with 2 μM lugdunin or with S. epidermidis CM alone or in combination for 20 h and subsequently expression of indicated antimicrobial peptides (AMPs) (respective protein names in brackets) was analyzed and normalized to actin. Shown is one representative experiment of three independent experiments with two technical replicates ± s.e.m. d PHKs were treated with 2 µM lugdunin or 100 ng/mL Pam2Cys for 5 h and subsequently the concentration of indicated cytokines in the supernatant was analyzed by LEGENDplex^TM (BioLegend). Shown is one representative experiment of three independent experiments with two technical replicates ± s.e.m. e PHKs were treated with increasing concentrations of lugdunin or 100 ng/mL Pam2Cys or Pam3Cys for 5 h and subsequently expression of chemokine (C-X-C motif) ligand 8 (CXCL8) was analyzed and normalized to actin. Shown is one representative experiment of three independent experiments, each with two technical replicates ± s.e.m. f, g Indicated cells were treated with 2 µM lugdunin or 100 ng/mL Pam2Cys as a positive control for 5 h and subsequently the concentration of CXCL8 (f) and interleukin-1α (IL-1α) (g) in the supernatant was analyzed by LEGENDplex^TM (BioLegend) and enzyme-linked immunosorbent assay (ELISA) (R&D Systems). Shown is one representative experiment of three independent experiments with two technical replicates ± s.e.m. Significant differences to control treatments were analyzed by ordinary one-way analysis of variance (ANOVA) followed by Dunnett’s multiple comparisons test (*P < 0.05; **P < 0.01; ***P < 0.001; ****P < 0.0001). n.d. = not detected. Source data are provided as a Source Data file
Fig. 4 Lugdunin amplifies the commensal-induced chemokine (C-X-C motif) ligand (CXCL8) induction. a Primary human keratinocytes (PHKs) were either treated with 2 μM of human antimicrobial peptides (AMPs) (black bars) or lugdunin (blue bars), or 0.8 μM (pro)-gallidermin or nisin (black bars), or in combination with S. epidermidis conditioned medium (CM) (gray and red striped bars) for 5 h, and subsequently expression of CXCL8 was analyzed and normalized to actin. Shown is one representative experiment of three independent experiments with two technical replicates ± s.e.m. b PHKs were treated with 2 μM human AMPs, 2 μM lugdunin, 0.8 μM of the other bacteriocins (gray bars) or the correspondent peptide combinations (white bars), or 50 ng/mL Pam2Cys, 10 ng/mL IL-1α, or S. epidermidis CM as controls (black bars), for 5 h and subsequently expression of CXCL8 was analyzed and normalized to actin. Shown is one representative experiment of three independent experiments with two technical replicates ± s.e.m. Significant differences to control treatments were analyzed by ordinary one-way analysis of variance (ANOVA) followed by Dunnett’s multiple comparisons test (***P < 0.001; ****P < 0.0001). Source data are provided as a Source Data file
After 5 h or 20 h of peptide treatment, PHKs were washed once with PBS, followed by the addition of RNA lysis buffer directly into the well. Total RNA was extracted using the Nucleospin RNA Kit (Macherey-Nagel) according to the manufacturer’s protocol. […]

HNEpCs = experiment: CXCL8 expression in HNEpCs (qRT-PCR); conditions: 5 h, 100 ng/mL Pam2Cys or Pam3Cys, two technical replicates, sheet Supp Fig 1f
Procedure: (§1) Quantitative reverse transcription-polymerase chain reaction (qRT-PCR) was performed in 10 µL reaction volume with SYBR^TM Green PCR Master Mix (Thermo Fisher) according to the manufacturer’s instructions using a LightCycler 96 (Roche Life Science). The initial denaturation step was at 95 °C for 5 min, followed by 40 cycles with 10 s each for the denaturation step at 95 °C, the annealing at individual temperature, and the elongation at 72 °C. Primer sequences and respective annealing temperatures are listed in Supplementary Table 1. […]
(§2) 31 g+h+i: HNEpCs (b), HTEpCs (c) or PBMCs (d) were treated with increasing
(§3) 32 concentrations of lugdunin (grey bars) or 100 ng/mL Pam2Cys or Pam3Cys (white
(§4) 33 bars) as positive controls for 5 hours and subsequently expression of CXCL8 was
(§5) 34 analyzed and normalized to actin. Black bar: medium control. Shown is one
(§6) 35 representative experiment of three independent experiments with two technical
(§7) 36 replicates +/-s.e.m. Significant differences to control treatments were analyzed by
(§8) 37 ordinary one-way ANOVA followed by Dunnett’s multiple comparisons test (*P<0.05; […]

HTEpCs = experiment: CXCL8 expression in HTEpCs (qRT-PCR); conditions: 5 h, 100 ng/mL Pam2Cys or Pam3Cys, two technical replicates, sheet Supp Fig 1g
Procedure: as §1, §2, §3, §4, §5, §6, §7, §8

PBMCs = experiment: CXCL8 expression in PBMCs (qRT-PCR); conditions: 5 h, 100 ng/mL Pam2Cys or Pam3Cys, two technical replicates, sheet Supp Fig 1h
Procedure: Quantitative reverse transcription-polymerase chain reaction (qRT-PCR) was performed in 10 µL reaction volume with SYBR^TM Green PCR Master Mix (Thermo Fisher) according to the manufacturer’s instructions using a LightCycler 96 (Roche Life Science). The initial denaturation step was at 95 °C for 5 min, followed by 40 cycles with 10 s each for the denaturation step at 95 °C, the annealing at individual temperature, and the elongation at 72 °C. Primer sequences and respective annealing temperatures are listed in Supplementary Table 1.
Human PBMCs were isolated from the peripheral blood of healthy donors upon obtaining informed consent by Ficoll-Histopaque (Biochrom) gradient centrifugation. Cells were washed once in PBS and adjusted to a cell number of 1 × 10^6 mL^−1 in RPMI-1640 medium (Gibco/Life Technologies) containing 10% FBS (Biochrom/Merck Millipore). […]
as §2, §3, §4, §5, §6, §7, §8

Molecule | CXCL8 expression normalized to actin (PHKs; 100 ng/mL Pam2Cys or Pam3Cys, medium = 1, technical replicates, Fig 1e) | CXCL8 fold induction (HNEpCs) | CXCL8 fold induction (HTEpCs) | CXCL8 fold induction (PBMCs) | CXCL8 expression normalized to actin (PHKs; 2 µM human AMPs, 2 µM lugdunin, 0.8 µM other bacteriocins or their combinations, 50 ng/mL Pam2Cys, 10 ng/mL IL-1α, S. epidermidis CM, two technical replicates, Fig 4b)
Pam3Cys [reference compound] | 1.261 and 1.177 | 22.316 and 30.696 | 3.972 and 3.732 | 2.838 and 2.819 | 
B1 |  |  |  |  | 153.545 and 150.36
